Measured values taken from article PMC10605449 (Biosensors, 2023).
Values belong to the molecule of their own block, whether it stands above or below them.

Assays:
[1] = target: T1, YAP(2-268):TEAD1(209-436) interaction (Homo sapiens, UniProt P28347); experiment: SPR, inhibition of YAP:TEAD1 interaction: TEAD1 pre-incubated with binder, injected over cellular biotinylated YAP(2-268); type: binding; conditions: for Effect on YAP(2-268):TEAD1 interaction compared with TEAD1 apo-form: TEAD1 incubated with saturating concentration (30 µM) of binder
T1 construct: made in house; host or cells: YAP: E. coli BL21 Star (DE3) pRARE2 lysate
Excerpt: The cellular biotinylated YAP(2-268) protein, as well as the biotinylated YAP(61-100) peptide, were immobilized using a similar approach as that described previously. However, neutravidin protein (ThermoFisher Scientific) was used as the selected pre-coated surface on a CM5 Series S sensor chip instead of streptavidin. […] The remaining activated groups were then blocked with ethanolamine-HCl. […] The interaction analysis cycles consisted of 120 s of sample injection followed by 280 s of running buffer flow. The experiment was performed at 15 °C. To ensure that the surface integrity of the cellular biotinylated YAP remained intact and that the interaction kinetic profile with TEAD1 was restored, an additional injection of TEAD1 apo-form was performed at the end of each experiment. All sensorgrams were processed by first subtracting the binding response recorded from the control surface (reference spot, where only the avidin protein is immobilized), followed by subtraction of the buffer blank injection from the reaction spot. All datasets were fitted to a simple 1:1 Langmuir interaction model to determine the kinetic rate constants, and the interaction affinity was additionally calculated at a steady state when applicable. In cases where small molecules were present during the assay, a DMSO solvent correction (1–3%) was applied to account for variations in bulk signal and to achieve high-quality data. The experiments with immobilized purified proteins were performed on a Biacore 4000 (Cytiva, Uppsala, Sweden), and the interaction was evaluated using the provided Biacore 4000 evaluation software, while the experiments with soluble cell lysates on a Biacore T200 (Cytiva, Uppsala, Sweden) used the provided Biacore T200 evaluation software. All SPR experiments were performed in duplicate.

DKC1(1-514) = target: T2, DKC1(1-514) (Homo sapiens, UniProt O60832); experiment: SPR Extract2Chip, cellular biotinylated DKC1(1-514), RuvBL1/RuvBL2 injected; type: binding
T2 construct: The cellular biotinylated His6-DKC1(1-514)-AviTag was immobilized using the approach described in Section 2.5.2; made in house; host or cells: E. coli BL21(DE3), co-expressed with BirA; soluble lysate used without purification
T2 sequence (O60832 1-514): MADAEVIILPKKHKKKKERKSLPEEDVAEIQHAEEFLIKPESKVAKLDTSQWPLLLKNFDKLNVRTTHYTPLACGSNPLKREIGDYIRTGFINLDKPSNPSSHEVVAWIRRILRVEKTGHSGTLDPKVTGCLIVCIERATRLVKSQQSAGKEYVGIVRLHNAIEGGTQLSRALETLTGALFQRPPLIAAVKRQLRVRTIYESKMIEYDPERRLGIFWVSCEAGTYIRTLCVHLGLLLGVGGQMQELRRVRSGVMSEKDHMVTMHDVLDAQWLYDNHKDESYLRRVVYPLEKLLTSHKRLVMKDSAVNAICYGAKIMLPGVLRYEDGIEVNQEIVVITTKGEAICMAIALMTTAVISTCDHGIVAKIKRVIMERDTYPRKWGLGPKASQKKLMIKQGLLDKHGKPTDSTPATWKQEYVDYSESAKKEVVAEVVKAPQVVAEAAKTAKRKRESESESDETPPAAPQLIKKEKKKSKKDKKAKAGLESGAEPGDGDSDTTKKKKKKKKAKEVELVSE
Protocol: The cellular biotinylation of the DKC1(1-514) protein followed the same approach as that described for CypD. DKC1(1-514) was expressed in BL21(DE3) in LB media and induced with 500 µM IPTG overnight at 18 °C. The PD-10 Desalting column was equilibrated with buffer U (50 mM HEPES pH 6.5, 750 mM KCl, 0.5 mM EDTA, and 0.5 mM TCEP).
The cellular biotinylated His6-DKC1(1-514)-AviTag was immobilized using the approach described in Section 2.5.2. The soluble cell lysate was diluted to 15 µg/mL and coupled with 150 and 300 s injection times to reach 130 to 175 RU. […]
All sensorgrams were processed by first subtracting the binding response recorded from the control surface (reference spot, where only the avidin protein is immobilized), followed by subtraction of the buffer blank injection from the reaction spot. All datasets were fitted to a simple 1:1 Langmuir interaction model to determine the kinetic rate constants, and the interaction affinity was additionally calculated at a steady state when applicable. […] The experiments with immobilized purified proteins were performed on a Biacore 4000 (Cytiva, Uppsala, Sweden), and the interaction was evaluated using the provided Biacore 4000 evaluation software, while the experiments with soluble cell lysates on a Biacore T200 (Cytiva, Uppsala, Sweden) used the provided Biacore T200 evaluation software. […]

TEAD1 [2] = target: T3, TEAD1 (Homo sapiens, UniProt P28347); experiment: Binary complex formation of TEAD1 to TEAD binders, biochemical assays; conditions: data not shown
TEAD1 [3] = target: T3, TEAD1; experiment: Binary complex formation of TEAD1 to TEAD binders, SPR; type: binding; conditions: data not shown
[4] = target: T4, His6-RuvBL1(1-456)/RuvBL2(1-463) (UniProt Q9Y265 1-456; Q9Y230 1-463); experiment: SPR; cellular biotinylated His6-DKC1(1-514)-AviTag captured from soluble cell lysate (130 to 175 RU) on neutravidin-coated CM5 chip; RuvBL1/RuvBL2 complexes injected, 10 concentrations, 2-fold series from 0.05 µM; 20 mM NaKPi pH 7.5, 150 mM NaCl, 5 mM MgCl2, 1 mM DTT, 0.05% Tween 20; 25 °C; 1:1 Langmuir fit; conditions: one partner purified
T4 construct: RuvBL1, residues 1-456; RuvBL2, residues 1-463; also called RuvBL1/RuvBL2; AAA+ ATPases RuvBL1/RuvBL2; not shown: His6, N-terminal, kept

[5] = TEAD1 incubated with 30 µM binder 18 h at 30 °C, 15 °C

T1 sequence (P28347 209-426): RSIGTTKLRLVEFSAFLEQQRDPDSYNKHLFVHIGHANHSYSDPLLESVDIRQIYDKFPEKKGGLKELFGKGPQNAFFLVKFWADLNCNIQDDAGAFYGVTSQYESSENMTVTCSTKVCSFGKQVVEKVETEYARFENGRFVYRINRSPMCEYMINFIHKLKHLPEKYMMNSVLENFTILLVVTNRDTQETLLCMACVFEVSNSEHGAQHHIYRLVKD
T4 sequence (Q9Y265 whole entry, chain 1 of 2, the tested form may be a part): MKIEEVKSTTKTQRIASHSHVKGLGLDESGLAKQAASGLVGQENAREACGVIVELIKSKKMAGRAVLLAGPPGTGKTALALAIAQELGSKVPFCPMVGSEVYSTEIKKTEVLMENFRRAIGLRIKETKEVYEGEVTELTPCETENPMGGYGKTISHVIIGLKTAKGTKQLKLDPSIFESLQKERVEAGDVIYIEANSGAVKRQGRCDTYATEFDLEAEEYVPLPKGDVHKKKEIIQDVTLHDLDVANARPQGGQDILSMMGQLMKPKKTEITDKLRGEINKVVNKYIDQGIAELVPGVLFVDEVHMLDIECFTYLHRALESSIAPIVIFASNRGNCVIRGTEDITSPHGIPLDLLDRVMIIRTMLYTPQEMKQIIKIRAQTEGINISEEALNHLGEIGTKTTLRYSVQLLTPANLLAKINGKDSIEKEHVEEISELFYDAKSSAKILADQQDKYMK
T4 sequence (Q9Y230 whole entry, chain 2 of 2, the tested form may be a part): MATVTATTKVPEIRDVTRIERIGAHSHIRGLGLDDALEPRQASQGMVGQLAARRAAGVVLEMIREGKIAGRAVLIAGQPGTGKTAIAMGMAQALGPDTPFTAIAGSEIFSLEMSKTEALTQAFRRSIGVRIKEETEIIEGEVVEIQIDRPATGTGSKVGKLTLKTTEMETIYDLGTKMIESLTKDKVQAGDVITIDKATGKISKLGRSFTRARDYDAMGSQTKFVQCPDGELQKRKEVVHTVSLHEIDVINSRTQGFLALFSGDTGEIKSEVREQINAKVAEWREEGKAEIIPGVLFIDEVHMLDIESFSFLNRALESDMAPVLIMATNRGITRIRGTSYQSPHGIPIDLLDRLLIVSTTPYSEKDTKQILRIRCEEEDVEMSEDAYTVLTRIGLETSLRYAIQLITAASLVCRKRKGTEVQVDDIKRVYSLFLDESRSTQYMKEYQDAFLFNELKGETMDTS
T3 sequence (P28347 whole entry): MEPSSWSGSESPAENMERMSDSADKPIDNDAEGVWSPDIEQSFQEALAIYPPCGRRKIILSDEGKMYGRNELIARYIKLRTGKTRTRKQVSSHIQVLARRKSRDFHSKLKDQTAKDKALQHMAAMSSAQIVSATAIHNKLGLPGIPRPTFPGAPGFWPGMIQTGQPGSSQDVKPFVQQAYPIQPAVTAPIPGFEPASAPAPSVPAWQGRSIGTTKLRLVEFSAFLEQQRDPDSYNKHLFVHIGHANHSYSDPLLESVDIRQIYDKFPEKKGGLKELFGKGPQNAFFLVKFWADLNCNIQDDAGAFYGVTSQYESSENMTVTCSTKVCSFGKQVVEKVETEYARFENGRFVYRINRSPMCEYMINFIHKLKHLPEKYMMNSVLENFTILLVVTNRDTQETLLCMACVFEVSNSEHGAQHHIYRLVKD

Molecule: CCCC[C@@H]1NC(=O)[C@H](CCCCN)NC(=O)[C@H](CCCNC(=N)N)NC(=O)[C@H](CC(C)C)NC(=O)[C@@H](NC(=O)[C@H](Cc2cccc(Cl)c2)NC(=O)[C@@H]2CCCN2C(=O)[C@@H](NC(C)=O)C(C)C)CCSSC[C@@H](C(=O)N[C@@H](CCCCN)C(=O)N2CCC[C@H]2C(=O)N2CCC[C@H]2C(=O)N[C@@H](CCC(=O)O)C(N)=O)NC(=O)[C@H](Cc2ccccc2)NC(=O)[C@H](CO)NC(=O)[C@H](C)NC(=O)[C@@H]2CCCN2C1=O [Peptide 17]
Effect on YAP(2-268):TEAD1 interaction compared with TEAD1 apo-form [1]: significantly suppressed the interaction

Effect on DKC1:RuvBL1/RuvBL2 interaction (DKC1(1-514); saturating concentrations, data not shown): Identical results
Molecule: Nc1ncnc2c1ncn2[C@@H]1O[C@H](CO[P@](=O)(O)O[P@](=O)(O)O[P@@](=O)(O)S)[C@@H](O)[C@H]1O [ATPγS]

Interaction with immobilized DKC1(1-514) (DKC1(1-514); compared with RuvBL1(1-456)/RuvBL2(1-463), partly data not shown): Identical results
Molecule: RuvBL1_D302N, RuvBL2_D299N: ATP hydrolysis RuvBL1/RuvBL2 mutant

ka ± SD of YAP(2-268):TEAD1 interaction in presence of binder [1, 5]: 1.2e+06 ± 120000 M⁻¹ s⁻¹
kd ± SD of YAP(2-268):TEAD1 interaction in presence of binder [1, 5]: 0.34 ± 0.074 s⁻¹
Effect on YAP(2-268):TEAD1 interaction compared with TEAD1 apo-form [1]: decrease in affinity
IC50 (TEAD1 [2]): 0.34 µM
Kd (TEAD1 [3]): 1.4 µM
Molecule: O=C(CCl)c1ccccc1Nc1cccc(C(F)(F)F)c1 [TED-347]

Kd [4]: 0.023 µM
koff [4]: 0.015 s⁻¹
kon [4]: 650000 M⁻¹ s⁻¹
B1: Cellular biotinylated H/ACA ribonucleoprotein complex subunit Dyskerin pseudouridine synthase 1, His6-DKC1(1-514)-AviTag (natural protein, UniProt O60832 1-514, looked up)
chain: MADAEVIILPKKHKKKKERKSLPEEDVAEIQHAEEFLIKPESKVAKLDTSQWPLLLKNFDKLNVRTTHYTPLACGSNPLKREIGDYIRTGFINLDKPSNPSSHEVVAWIRRILRVEKTGHSGTLDPKVTGCLIVCIERATRLVKSQQSAGKEYVGIVRLHNAIEGGTQLSRALETLTGALFQRPPLIAAVKRQLRVRTIYESKMIEYDPERRLGIFWVSCEAGTYIRTLCVHLGLLLGVGGQMQELRRVRSGVMSEKDHMVTMHDVLDAQWLYDNHKDESYLRRVVYPLEKLLTSHKRLVMKDSAVNAICYGAKIMLPGVLRYEDGIEVNQEIVVITTKGEAICMAIALMTTAVISTCDHGIVAKIKRVIMERDTYPRKWGLGPKASQKKLMIKQGLLDKHGKPTDSTPATWKQEYVDYSESAKKEVVAEVVKAPQVVAEAAKTAKRKRESESESDETPPAAPQLIKKEKKKSKKDKKAKAGLESGAEPGDGDSDTTKKKKKKKKAKEVELVSE
modifications: biotin on the AviTag (BirA, in the cells)
notes: Dyskerin pseudouridine synthase 1 (DKC1), residues 1-514; Captured from the lysate on a neutravidin-coated CM5 chip by the biotinylated AviTag; also called DCK1(1-514); DCK1(1-541); source: E. coli BL21(DE3), co-expressed with BirA-FLAG and D-biotin, in cleared lysate (desalted, not purified); not shown: His6, N-terminal, kept; AviTag, C-terminal, kept
